Results taken from patent US11976061B2, “Preparation of benzimidazolone derivatives as novel diacylglyceride O-acyltransferase 2 inhibitors” (Merck Sharp & Dohme LLC, priority 2020, dated 2024).
Read-outs that look alike come from different tables or passages of the source.

Target: T1, human DGAT2 (hDGAT2) (Homo sapiens, UniProt Q96PD7)
T1 construct: made in house; host or cells: Sf-9 insect cells (baculovirus), membrane fraction
T1 sequence (Q96PD7 1-388): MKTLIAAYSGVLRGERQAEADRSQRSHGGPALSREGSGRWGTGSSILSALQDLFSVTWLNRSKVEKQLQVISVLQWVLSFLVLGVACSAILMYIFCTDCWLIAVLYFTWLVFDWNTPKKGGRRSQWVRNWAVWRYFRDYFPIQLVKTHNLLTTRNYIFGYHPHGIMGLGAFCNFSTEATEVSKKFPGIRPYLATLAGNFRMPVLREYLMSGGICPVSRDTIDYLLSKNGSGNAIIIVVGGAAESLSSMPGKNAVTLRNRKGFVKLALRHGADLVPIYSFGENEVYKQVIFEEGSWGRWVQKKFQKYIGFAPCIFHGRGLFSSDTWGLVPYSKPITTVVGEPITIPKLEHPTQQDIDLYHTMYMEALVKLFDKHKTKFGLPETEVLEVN
Experiment: DGAT2 Enzymatic Activity Assay
Format: biochemical
Conditions: membrane prep of Sf-9 cells expressing hDGAT2, 25 μM diolein, 5 μM 13C oleoyl-CoA, 13C18-triolein by LC/MS/MS
Procedure: Insect Cell Expression and Membrane Preparation
Sf-9 insect cells were maintained in Grace's insect cell culture medium with 10% heated-inactivated fetal bovine serum, 1% Pluronic F-68 and 0.14 μg/ml Kanamycine sulfate at 27° C. in a shaker incubator. After infection with untagged baculovirus expressing human DGAT2 (hDGAT2) at multiplicity of infection (MOI) 3 for 48 hours, cells were harvested. Cell pellets were suspended in buffer containing 10 mM Tris-HCl pH 7.5, 1 mM EDTA, 250 mM sucrose and Complete Protease Inhibitor Cocktail (Sigma Aldrich), and sonicated on ice. Cell debris were removed by centrifugation at 2000×g for 15 minutes. Membrane fractions were isolated by ultracentrifugation (100,000×g), resuspended in the same buffer, and frozen (−80° C.) for later use. The protein concentration was determined with the Pierce™ BCA Protein Assay Kit (Thermo Fisher Scientific). Expression of protein levels was analyzed by immunoblotting with rabbit anti-DGAT2 antibody (Abcam, ab102831) and donkey anti-rabbit IgG H&L Alexa Fluor® 647 (Abcam, ab150075) followed by detection using Typhoon FLA9000 (GE Healthcare).
LC/MS/MS analyses were performed using Thermal Fisher's LX4-TSQ Vantage system. This system consists of an Agilent binary high-performance liquid chromatography (HPLC) pump and a TSQ Vantage triple quadrupole MS/MS instrument. For each sample, 2 μL samples from the top organic layer of in-plate liquid-liquid extraction were injected onto a Thermo Betabasic C4 column (2.1 mm×20 mm, 5 μm particle size). The samples were then eluted using the following conditions; mobile phase: Isopropanol:acetonitrile/10 mM ammonium formate=50/35/15 (v/v/v), flow rate: 0.8 mL/min, temperature: 25° C. Data was acquired in positive mode using a heated electrospray ionization (HESI) interface. The operational parameters for the TSQ Vantage MS/MS instrument were a spray voltage of 3000 V, capillary temperature of 280° C., vaporizer temperature 400° C., sheath gas 45 arbitrary unit, Aux gas 10 arbitrary units, S-lens 165 and collision gas 1.0 mTorr. […] (SRM) chromatograms of ^13C18-triolein (Q1: 920.8>Q3: 621.3) and internal standard ^13C21-triolein (Q1: 923.8>Q3: 617.3) were collected for 33 sec. The peak area was integrated by Xcalibur Quan software. The ratio between the ^13C18triolein generated in the reaction and spiked in internal standard ^13C21-triolein was used to generate percentage inhibition and IC50 values. Compound percentage inhibition was calculated by the following formula: Inhibition %=1−[(compound response−low control)/(high control−low control)]×100%. Potent compounds were titrated and IC50 were calculated by 4 parameter sigmoidal curve fitting formula.
DGAT2 Enzymatic Activity Assay
DGAT2 activity was determined by measuring the amount of enzymatic product ^13C18-triolein (^13C-1,2,3-Tri(cis-9-octadecenoyl)glycerol) using the membrane prep mentioned above. The assay was carried out in ABgene 384-well assay plates in a final volume of 25 μL at rt. The assay mixture contained the following: assay buffer (100 mM Tris·Cl, pH 7.0, 20 mM MgCl2, 5% ethanol), 25 μM of diolein, 5 μM of ^13C oleoyl-CoA and 8 ng/μL of DGAT2 membrane.

Row | SMILES | IC50 (read-out: Human DGAT2 IC50) | IC50 (read-out: DGAT2 IC50)
1 | CC1(NC(=O)c2ccc3c(c2)n(-c2ccc(F)cc2)c(=O)n3-c2cccc(OC(F)F)c2)CS(=O)(=O)C1 [Example 2, 1-(3-(difluoromethoxy)phenyl)-3-(4-fluorophenyl)-N-(3-methyl-1,1-dioxidothietan-3-yl)-2-oxo-2,3-dihydro-1H-benzo[d]imidazole-5-carboxamide] | 0.0018 µM | 
2 | CC1(NC(=O)c2ccc3c(c2)n(CC(F)(F)F)c(=O)n3-c2cccc(OC(F)F)c2)CCS(=O)(=O)CC1 [Example 44, 1-(3-(difluoromethoxy)phenyl)-N-(4-methyl-1,1-dioxidotetrahydro-2H-thiopyran-4-yl)-2-oxo-3-(2,2,2-trifluoroethyl)-2,3-dihydro-1H-benzo[d]imidazole-5-carboxamide] |  | 0.087 µM
3 | CC(C)n1c(=O)n(-c2cccc(OC(F)F)c2)c2ccc(C(=O)N[C@H]3CCCC[C@@H]3O)cc21 [Example 35, 1-[3-(difluoromethoxy)phenyl]-N-[(1S,2S)-2-hydroxycyclohexyl]-3-isopropyl-2-oxo-benzimidazole-5-carboxamide] |  | 0.071 µM
4 | CC(C)Oc1cc(-n2c(=O)n(C(C)C)c3cc(C(=O)NC4(C)CCS(=O)(=O)CC4)ccc32)c(F)cn1 [Example 51, 1-(5-fluoro-2-isopropoxypyridin-4-yl)-3-isopropyl-N-(4-methyl-1,1-dioxidotetrahydro-2H-thiopyran-4-yl)-2-oxo-2,3-dihydro-1H-benzo[d]imidazole-5-carboxamide] |  | 0.251 µM
5 | CC(C)n1c(=O)n(-c2cccc(OC(F)(F)C(F)F)c2)c2ccc(C(=O)NC3(C)CS(=O)(=O)C3)cc21 [Example 7, 3-isopropyl-N-(3-methyl-1,1-dioxo-thietan-3-yl)-2-oxo-1-[3-(1,1,2,2-tetrafluoroethoxy)phenyl]benz-imidazole-5-carboxamide] | 0.016 µM | 
6 | CC(C)n1c(=O)n(-c2cccc(OC(F)F)c2)c2ccc(C(=O)N[C@@H]3CCCC[C@H]3O)cc21 [Example 31, 1-[3-(difluoromethoxy)phenyl]-N-[(1R,2R)-2-hydroxycyclohexyl]-3-isopropyl-2-oxo-benzimidazole-5-carboxamide] |  | 0.106 µM
7 | CC(C)n1c(=O)n(-c2cccc(OC(F)F)c2)c2ccc(C(=O)NC3(C)CCS(=O)(=O)CC3)cc21 [Example 25, 1-(3-(difluoromethoxy)phenyl)-3-isopropyl-N-(4-methyl-1,1-dioxidotetrahydro-2H-thiopyran-4-yl)-2-oxo-2,3-dihydro-1H-benzo[d]imidazole-5-carboxamide] | 0.023 µM | 
8 | CC(C)n1c(=O)n(-c2cccc(C3CC3)c2)c2ccc(C(=O)NC3(C)CS(=O)(=O)C3)cc21 [Example 13, 1-(3-cyclopropylphenyl)-3-isopropyl-N-(3-methyl-1,1-dioxo-thietan-3-yl)-2-oxo-benzimidazole-5-carboxamide] | 0.017 µM | 
9 | CSc1cccc(-n2c(=O)n(C(C)C)c3cc(C(=O)NC4(C)CCS(=O)(=O)CC4)ccc32)c1 [Example 56, 3-isopropyl-N-(4-methyl-1,1-dioxidotetrahydro-2H-thiopyran-4-yl)-1-(3-(methylthio)phenyl)-2-oxo-2,3-dihydro-1H-benzo[d]imidazole-5-carboxamide] |  | 0.367 µM
10 | Cn1c(=O)n(-c2cccc(OC(F)F)c2)c2ccc(C(=O)NC3(C)CS(=O)(=O)C3)cc21 [Example 60, 1-(3-(difluoromethoxy)phenyl)-3-methyl-N-(3-methyl-1,1-dioxidothietan-3-yl)-2-oxo-2,3-dihydro-1H-benzo[d]imidazole-5-carboxamide] |  | 1.09 µM

Other lines, results leading:

Row | IC50 (read-out: Human DGAT2 IC50) | IC50 (read-out: DGAT2 IC50) | SMILES
11 | 0.0057 µM |  | CC(C)n1c(=O)n(-c2cc(OC(F)F)ccc2F)c2ccc(C(=O)N[C@]3(C)CCS(=O)(=O)C3)cc21 [Example 82, (R)-1-(5-(Difluoromethoxy)-2-fluorophenyl)-3-isopropyl-N-(3-methyl-1,1-dioxidotetrahydrothiophen-3-yl)-2-oxo-2,3-dihydro-1H-benzo[d]imidazole-5-carboxamide]
12 |  | 0.0011 µM | CC(n1c(=O)n(-c2cc(OC(F)F)ccc2F)c2ccc(C(=O)NC3(C)CCS(=O)(=O)CC3)cc21)C(C)(C)O (single isomer, unassigned) [Example 66a, 1-(5-(difluoromethoxy)-2-fluorophenyl)-3-(3-hydroxy-3-methylbutan-2-yl)-N-(4-methyl-1,1-dioxidotetrahydro-2H-thiopyran-4-yl)-2-oxo-2,3-dihydro-1H-benzo[d]imidazole-5-carboxamide]
13 |  | 0.023 µM | CC(C)n1c(=O)n(-c2cccc(OC(F)(F)C(F)F)c2)c2ncc(C(=O)N[C@]3(C)CCS(=O)(=O)C3)cc21 [Example 95, 1-isopropyl-N-[(3R)-3-methyl-1,1-dioxo-thiolan-3-yl]-2-oxo-3-[3-(1,1,2,2-tetrafluoroethoxy)phenyl]imidazo[4,5-b]pyridine-6-carboxamide]
14 | 0.0063 µM |  | CC(C)n1c(=O)n(-c2cc(OC(F)F)ccc2F)c2ccc(C(=O)N[C@@]3(C)CCS(=O)(=O)C3)cc21 [Example 81, (S)-1-(5-(Difluoromethoxy)-2-fluorophenyl)-3-isopropyl-N-(3-methyl-1,1-dioxidotetrahydrothiophen-3-yl)-2-oxo-2,3-dihydro-1H-benzo[d]imidazole-5-carboxamide]
15 | 0.0356 µM |  | CC(C)(O)Cn1c(=O)n(-c2cccc(OC(F)F)c2)c2ccc(C(=O)NC3(C)CS(=O)(=O)C3)cc21 [Example 64, 1-(3-(difluoromethoxy)phenyl)-3-(2-hydroxy-2-methylpropyl)-N-(3-methyl-1,1-dioxidothietan-3-yl)-2-oxo-2,3-dihydro-1H-benzo[d]imidazole-5-carboxamide]
16 | 0.071 µM |  | CC(C)n1c(=O)n(-c2cncc(C3CC3)c2)c2ccc(C(=O)NC3(C)CS(=O)(=O)C3)cc21 [Example 84, 1-(5-Cyclopropylpyridin-3-yl)-3-isopropyl-N-(3-methyl-1,1-dioxidothietan-3-yl)-2-oxo-2,3-dihydro-1H-benzo[d]imidazole-5-carboxamide]
17 |  | 0.0098 µM | CC(n1c(=O)n(-c2cccc(OC(F)(F)C(F)F)c2)c2ccc(C(=O)NC3(C)CCS(=O)(=O)CC3)cc21)C(C)(C)O (single isomer, unassigned) [Example 77b, 3-(3-hydroxy-3-methylbutan-2-yl)-N-(4-methyl-1,1-dioxidotetrahydro-2H-thiopyran-4-yl)-2-oxo-1-(3-(1,1,2,2-tetrafluoroethoxy)phenyl)-2,3-dihydro-1H-benzo[d]imidazole-5-carboxamide]
18 |  | 0.211 µM | CC(n1c(=O)n(-c2cccc(OC(F)F)c2)c2ccc(C(=O)NC3(C)CCS(=O)(=O)CC3)cc21)C(C)(C)O (single isomer, unassigned) [Example 67b, 1-(3-(difluoromethoxy)phenyl)-3-(3-hydroxy-3-methylbutan-2-yl)-N-(4-methyl-1,1-dioxidotetrahydro-2H-thiopyran-4-yl)-2-oxo-2,3-dihydro-1H-benzo[d]imidazole-5-carboxamide]
19 |  | 0.051 µM | CC(C)n1c(=O)n(-c2cc(OCC(F)F)ccn2)c2ccc(C(=O)NC3(C)CCS(=O)(=O)CC3)cc21 [Example 119, 1-(4-(2,2-difluoroethoxy)pyridin-2-yl)-3-isopropyl-N-(4-methyl-1,1-dioxidotetrahydro-2H-thiopyran-4-yl)-2-oxo-2,3-dihydro-1H-benzo[d]imidazole-5-carboxamide]
